Assay results published in patent US8163793B2, “Proline derivatives” (Hoffman-La Roche Inc., priority 2009, dated 2012).

What was measured:
Cathepsin S = Cathepsin S (UniProt P25774); test: Cathepsin enzyme inhibition assay (fluorogenic peptide substrate Z-Val-Val-Arg-AMC), Cathepsin S; type: biochemical, human and mouse; conditions: enzyme 1 nM, substrate 20 μM, pH 6.5; read-out: CatS IC50
Method in brief: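 Human or mouse cathepsin S (1 nM) was run in 100 mM potassium phosphate pH 6.5 with 5 mM EDTA, 0.001% Triton X-100 and 5 mM DTT. The rise in AMC fluorescence from cleavage was measured, and IC50 values were calculated by standard methods and expressed in μM.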

Cat L = Cat L (UniProt P07711); test: Cathepsin enzyme inhibition assay (fluorogenic peptide substrate Z-Val-Val-Arg-AMC), Cathepsin L; type: biochemical, human and mouse; conditions: enzyme 1 nM, substrate 20 μM, pH 6.5; read-out: CatL IC50
Method in brief: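 Cathepsin L at 1 nM was mixed with compound, then started with 20 μM Z-Val-Val-Arg-AMC in pH 6.5 potassium phosphate with EDTA, Triton X-100 and 5 mM DTT. AMC fluorescence (ex 360/em 465 nm) was followed over 20 min. IC50 is given in μM.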

| SMILES | IC50 (Cathepsin S) [nM] | IC50 (Cat L) [nM] |
| --- | --- | --- |
| CC(C)C[C@]1(C(=O)NC2(C#N)CC2)C[C@H](S(=O)(=O)c2ccccc2)[C@@H](c2ccc(F)cc2)N1 [Example 126, (2R,4S,5R)-4-Benzenesulfonyl-5-(4-fluoro-phenyl)-2-isobutyl-pyrrolidine-2-carboxylic acid (1-cyano-cyclopropyl)-amide] | 1250 | ≥ 25000 |
| N#CC1(NC(=O)[C@@H]2C[C@@H](S(=O)(=O)c3ccc(N4CCCCC4)cc3Cl)CN2)CC1 [Example 127, (2S,4R)-4-(2-Chloro-4-piperidin-1-yl-benzenesulfonyl)-pyrrolidine-2-carboxylic acid (1-cyano-cyclopropyl)-amide] | 2 | 6000 |
| N#CC1(NC(=O)[C@@H]2C[C@@H](S(=O)(=O)c3ccc(-n4cccn4)cc3Cl)CN2)CC1 [Example 128, (2S,4R)-4-(2-Chloro-4-pyrazol-1-yl-benzenesulfonyl)-pyrrolidine-2-carboxylic acid (1-cyano-cyclopropyl)-amide] | 1.4 | 17300 |
| CC(Oc1ccc(S(=O)(=O)[C@H]2CN[C@H](C(=O)NC3(C#N)CC3)C2)c(Cl)c1)C(F)(F)F (stereo partly drawn) [Example 129, (2S,4R)-4-[2-Chloro-4-(2,2,2-trifluoro-1-methyl-ethoxy)-benzenesulfonyl]-pyrrolidine-2-carboxylic acid (1-cyano-cyclopropyl)-amide] | 8 | 20400 |
| CC(C)(C)OC(=O)N1C[C@H](S(=O)(=O)c2ccc(N3CCC(F)(F)C3)cc2Cl)C[C@H]1C(=O)NC1(C#N)CC1 [Example 130, (2S,4R)-4-[2-Chloro-4-(3,3-difluoro-pyrrolidin-1-yl)-benzenesulfonyl]-2-(1-cyano-cyclopropylcarbamoyl)-pyrrolidine-1-carboxylic acid tert.-butyl ester] | 2.4 | ≥ 25000 |
| CC(=O)N1C[C@H](S(=O)(=O)c2ccc(-n3cccn3)cc2Cl)C[C@H]1C(=O)NC1(C#N)CC1 [Example 131, (2S,4R)-1-Acetyl-4-(2-chloro-4-pyrazol-1-yl-benzenesulfonyl)-pyrrolidine-2-carboxylic acid (1-cyano-cyclopropyl)-amide formiate] | 0.9 | 33900 |
| CC(=O)N1C[C@H](S(=O)(=O)c2ccc(OC(C)C(F)(F)F)cc2Cl)C[C@H]1C(=O)NC1(C#N)CC1 (stereo partly drawn) [Example 132, (2S,4R)-1-Acetyl-4-[2-chloro-4-(2,2,2-trifluoro-1-methyl-ethoxy)-benzenesulfonyl]-pyrrolidine-2-carboxylic acid (1-cyano-cyclopropyl)-amide] | 3.8 | 35000 |
| CC(=O)N1C[C@H](S(=O)(=O)c2ccc(N3CCCCC3)cc2Cl)C[C@H]1C(=O)NC1(C#N)CC1 [Example 133, (2S,4R)-1-Acetyl-4-(2-chloro-4-piperidin-1-yl-benzenesulfonyl)-pyrrolidine-2-carboxylic acid (1-cyano-cyclopropyl)-amide formiate] | 0.9 | 23400 |
| CC(=O)N1C[C@H](S(=O)(=O)c2ccc(F)cc2Cl)C[C@H]1C(=O)NC1(C#N)CC1 [Example 134, (2S,4R)-1-Acetyl-4-(2-chloro-4-fluoro-benzenesulfonyl)-pyrrolidine-2-carboxylic acid (1-cyano-cyclopropyl)-amide] | 6.2 | ≥ 25000 |
| N#CC1(NC(=O)[C@@H]2C[C@@H](S(=O)(=O)c3ccc(N4CCCCC4)cc3Cl)CN2C(=O)C2(C(F)(F)F)CC2)CC1 [Example 135, (2S,4R)-4-(2-Chloro-4-piperidin-1-yl-benzenesulfonyl)-1-(1-trifluoromethyl-cyclopropanecarbonyl)-pyrrolidine-2-carboxylic acid (1-cyano-cyclopropyl)-amide] | 0.3 | 3150 |
| N#CC1(NC(=O)[C@@H]2C[C@@H](S(=O)(=O)c3ccc(N4CCC(F)(F)C4)cc3Cl)CN2)CC1 [Example 136, (2S,4R)-4-[2-Chloro-4-(3,3-difluoro-pyrrolidin-1-yl)-benzenesulfonyl]-pyrrolidine-2-carboxylic acid (1-cyano-cyclopropyl)-amide formiate] | 2.2 | 12600 |
| COC(=O)c1ccc(C(=O)N2C[C@H](S(=O)(=O)c3ccccc3C(F)(F)F)C[C@H]2C(=O)NCC#N)cc1 [Example 137, 4-[(2S,4R)-2-(Cyanomethyl-carbamoyl)-4-(2-trifluoromethyl-benzenesulfonyl)-pyrrolidine-1-carbonyl]-benzoic acid methyl ester] | 1 | ≥ 25000 |
| CCN1CCN(c2ccc(S(=O)(=O)[C@@H]3C[C@@H](C(=O)NC4(C#N)CC4)N(C(=O)OC(C)(C)C)C3)c(Cl)c2)CC1 [Example 138, (2S,4R)-4-[2-Chloro-4-(4-ethyl-piperazin-1-yl)-benzenesulfonyl]-2-(1-cyano-cyclopropylcarbamoyl)-pyrrolidine-1-carboxylic acid tert.-butyl ester] | 3.4 | 28600 |
| CC(C)(C)OC(=O)N1C[C@H](S(=O)(=O)c2ccc(OCCN3CCCCC3)cc2Cl)C[C@H]1C(=O)NC1(C#N)CC1 [Example 139, (2S,4R)-4-[2-Chloro-4-(2-piperidin-1-yl-ethoxy)-benzenesulfonyl]-2-(1-cyano-cyclopropylcarbamoyl)-pyrrolidine-1-carboxylic acid tert.-butyl ester] | 7.8 | ≥ 25000 |
| CCN1CCN(c2ccc(S(=O)(=O)[C@H]3CN[C@H](C(=O)NC4(C#N)CC4)C3)c(Cl)c2)CC1 [Example 140, (2S,4R)-4-[2-Chloro-4-(4-ethyl-piperazin-1-yl)-benzenesulfonyl]-pyrrolidine-2-carboxylic acid (1-cyano-cyclopropyl)-amide formiate] | 5.9 | 24500 |
| CCN1CCN(c2ccc(S(=O)(=O)[C@@H]3C[C@@H](C(=O)NC4(C#N)CC4)N(C(=O)C4(C(F)(F)F)CC4)C3)c(Cl)c2)CC1 [Example 141, (2S,4R)-4-[2-Chloro-4-(4-ethyl-piperazin-1-yl)-benzenesulfonyl]-1-(1-trifluoromethyl-cyclopropanecarbonyl)-pyrrolidine-2-carboxylic acid (1-cyano-cyclopropyl)-amide] | 0.6 | 3460 |
| CCN1CCN(c2ccc(S(=O)(=O)[C@@H]3C[C@@H](C(=O)NC4(C#N)CC4)N(C(=O)C4(C(F)(F)F)CC4)C3)c(Cl)c2)CC1 [Example 142, (2S,4R)-4-[2-Chloro-4-(4-ethyl-piperazin-1-yl)-benzenesulfonyl]-1-(1-trifluoromethyl-cyclopropanecarbonyl)-pyrrolidine-2-carboxylic acid (1-cyano-cyclopropyl)-amide formiate] | 0.3 | 2480 |
| CCN1CCN(c2ccc(S(=O)(=O)[C@@H]3C[C@@H](C(=O)NC4(C#N)CC4)N(C=O)C3)c(Cl)c2)CC1 [Example 143, (2S,4R)-4-[2-Chloro-4-(4-ethyl-piperazin-1-yl)-benzenesulfonyl]-1-formyl-pyrrolidine-2-carboxylic acid (1-cyano-cyclopropyl)-amide] | 4.3 | 28100 |
| N#CC1(NC(=O)[C@@H]2C[C@@H](S(=O)(=O)c3ccc(F)cc3Cl)CN2)CC1 [Example 144, (2S,4R)-4-(2-Chloro-4-fluoro-benzenesulfonyl)-pyrrolidine-2-carboxylic acid (1-cyano-cyclopropyl)-amide] | 9.7 | 28200 |
| N#CC1(NC(=O)[C@@H]2C[C@@H](S(=O)(=O)c3ccc(F)cc3Cl)CN2C(=O)C2(C(F)(F)F)CC2)CC1 [Example 145, (2S,4R)-4-(2-Chloro-4-fluoro-benzenesulfonyl)-1-(1-trifluoromethyl-cyclopropanecarbonyl)-pyrrolidine-2-carboxylic acid (1-cyano-cyclopropyl)-amide] | 0.6 | 11800 |
| N#CC1(NC(=O)[C@@H]2C[C@@H](S(=O)(=O)c3ccc(N4CCCCC4)cc3Cl)CN2C=O)CC1 [Example 146, (2S,4R)-4-(2-Chloro-4-piperidin-1-yl-benzenesulfonyl)-1-formyl-pyrrolidine-2-carboxylic acid (1-cyano-cyclopropyl)-amide formiate] | 6.4 | 25500 |
| N#CC1(NC(=O)[C@@H]2C[C@@H](S(=O)(=O)c3ccc(-n4cccn4)cc3Cl)CN2C(=O)C2(C(F)(F)F)CC2)CC1 [Example 147, (2S,4R)-4-(2-Chloro-4-pyrazol-1-yl-benzenesulfonyl)-1-(1-trifluoromethyl-cyclopropanecarbonyl)-pyrrolidine-2-carboxylic acid (1-cyano-cyclopropyl)-amide] | 0.4 | 13600 |
| N#CC1(NC(=O)[C@@H]2C[C@@H](S(=O)(=O)c3ccc(-n4cccn4)cc3Cl)CN2C=O)CC1 [Example 148, (2S,4R)-4-(2-Chloro-4-pyrazol-1-yl-benzenesulfonyl)-1-formyl-pyrrolidine-2-carboxylic acid (1-cyano-cyclopropyl)-amide] | 16 | ≥ 25000 |
| CC(Oc1ccc(S(=O)(=O)[C@@H]2C[C@@H](C(=O)NC3(C#N)CC3)N(C(=O)C3(C(F)(F)F)CC3)C2)c(Cl)c1)C(F)(F)F (stereo partly drawn) [Example 149, (2S,4R)-4-[2-Chloro-4-(2,2,2-trifluoro-1-methyl-ethoxy)-benzenesulfonyl]-1-(1-trifluoromethyl-cyclopropanecarbonyl)-pyrrolidine-2-carboxylic acid (1-cyano-cyclopropyl)-amide] | 0.7 | 8100 |
